The test system of one assay is E. coli LZ3111. Put plainly: Antibacterial activity, MIC, quinolone resistant strain (Table 2). The class given is cell-based. The note with it: Escherichia coli, LZ3111, read-out: MIC LZ3111. An excerpt: (§1) The antibacterial activity from a microbroth dilution method may be presented as the minimum inhibitory concentration (MIC in μg/mL). The MIC value is the lowest concentration of drug which prevents macroscopically visible growth under test conditions.
Mutations in these regions are known to confer a high level resistance to the quinolone class of antibiotics.

In assay [1] the test system is Escherichia coli (E. coli) BAS849. Put plainly: Antibacterial activity, microbroth dilution MIC (Table 1). It is filed as cell-based. To be noted: microbroth dilution, super sensitive Gram-negative E. coli BAS849, read-out: MIC, BAS849.
Description: as §1
(§2) Antibacterial activity of test compounds against the super sensitive Gram-negative Escherichia coli (E. coli) BAS849 bacterium, the control Gram-negative E. coli 25922 strain and the Gram-positive Staphylococcus aureus (S. aureus) 29213 bacterium are shown in Table 1.
(In broth dilution the organism is exposed to a series of concentrations in liquid medium.)

In assay [2] the test system is Staphylococcus aureus (S. aureus) 29213. The description is as above. The class given is cell-based. The note with it: microbroth dilution, Gram-positive S. aureus 29213, read-out: MIC, 29213.
Description: as §1, §2

The test system of a further assay is E. coli 25922. The description is as above. It is filed as cell-based, Escherichia coli. The note with it: Escherichia coli; microbroth dilution; control Gram-negative E. coli 25922 strain; read-out: MIC, 25922.
Description: as §1, §2

Values after ≈ are worked out from the molar mass of the structure shown.

Consider `CCc1c(-c2ccc3nc(N(C)C)oc3c2)[nH]c(=O)c(C(=O)O)c1O` [Cpd 18, 6-(2-(dimethylamino)benzo[d]oxazol-6-yl)-5-ethyl-4-hydroxy-2-oxo-1,2-dihydropyridine-3-carboxylic acid], for which the MIC (usually the lowest concentration found to suppress growth) in the assay on E. coli LZ3111 lay within 12.5 to 150 µg/mL (≈ 36.4 to 437 µM); in assay [1], 3.5 to 12.5 µg/mL (≈ 10.2 to 36.4 µM); in assay [2] it was 1 to 3.5 µg/mL (≈ 2.91 to 10.2 µM); with E. coli 25922 it was 12.5 to 150 µg/mL (≈ 36.4 to 437 µM).

As for `CCc1cc(C(=O)O)c(=O)[nH]c1-c1ccc2c(ccn2CCO)c1` [Cpd 23, 5-ethyl-6-(1-(2-hydroxyethyl)-1H-indol-5-yl)-2-oxo-1,2-dihydropyridine-3-carboxylic acid], the MIC with E. coli LZ3111 is 12.5 to 150 µg/mL (≈ 38.3 to 460 µM); in assay [1] it was below 1 µg/mL; in assay [2] it was 12.5 to 150 µg/mL (≈ 38.3 to 460 µM); in the assay with E. coli 25922 it was 3.5 to 12.5 µg/mL (≈ 10.7 to 38.3 µM).

In the case of `CCc1c(-c2ccc3c(c2)c2c(n3C)CCCC2)[nH]c(=O)c(C(=O)O)c1O` [Cpd 28, 5-ethyl-4-hydroxy-6-(9-methyl-2,3,4,9-tetrahydro-1H-carbazol-6-yl)-2-oxo-1,2-dihydropyridine-3-carboxylic acid], the MIC in the assay on E. coli LZ3111 is 12.5 to 150 µg/mL (≈ 34.1 to 409 µM); in assay [1], 12.5 to 150 µg/mL (≈ 34.1 to 409 µM); in assay [2] it was below 1 µg/mL; in the assay with E. coli 25922 it was 12.5 to 150 µg/mL (≈ 34.1 to 409 µM).

For the molecule `CCc1c(-c2ccc3c(c2)c(C)c(C)n3C)[nH]c(=O)c(C(=O)O)c1O` [Cpd 30, 5-ethyl-4-hydroxy-2-oxo-6-(1,2,3-trimethyl-1H-indol-5-yl)-1,2-dihydropyridine-3-carboxylic acid], the MIC with E. coli LZ3111 was in the range of 12.5 to 150 µg/mL (≈ 36.7 to 441 µM); in assay [1], 1 to 3.5 µg/mL (≈ 2.94 to 10.3 µM); in assay [2], 1 to 3.5 µg/mL (≈ 2.94 to 10.3 µM); in the assay with E. coli 25922, 12.5 to 150 µg/mL (≈ 36.7 to 441 µM).

As for `CCc1cc(C(=O)O)c(=O)[nH]c1-c1cc2cc(C(=O)O)n(C)c2cn1` [Cpd 54, 5-(5-carboxy-3-ethyl-6-oxo-1,6-dihydropyridin-2-yl)-1-methyl-1H-pyrrolo[2,3-c]pyridine-2-carboxylic acid], the MIC was 12.5 to 150 µg/mL (≈ 36.6 to 439 µM) in the assay with E. coli LZ3111, 1 to 3.5 µg/mL (≈ 2.93 to 10.3 µM) in assay [1], 12.5 to 150 µg/mL (≈ 36.6 to 439 µM) in assay [2] and 12.5 to 150 µg/mL (≈ 36.6 to 439 µM) in the assay on E. coli 25922.

On to `CCc1cc(C(=O)O)c(=O)[nH]c1-c1cnc2[nH]ccc2c1` [Cpd 55, 5-ethyl-2-oxo-6-(1H-pyrrolo[2,3-b]pyridin-5-yl)-1,2-dihydropyridine-3-carboxylic acid], for which the MIC (in the assay on E. coli LZ3111; in assay [1]; in assay [2]; with E. coli 25922) was 12.5 to 150 µg/mL (≈ 44.1 to 529 µM) throughout.

For `CCc1cc(C(=O)O)c(=O)[nH]c1-c1ccc2c(c1)N(C)CCN2C` [Cpd 56, 6-(1,4-dimethyl-1,2,3,4-tetrahydroquinoxalin-6-yl)-5-ethyl-2-oxo-1,2-dihydropyridine-3-carboxylic acid], the MIC with E. coli LZ3111 fell in the range of 12.5 to 150 µg/mL (≈ 38.2 to 458 µM); in assay [1], 3.5 to 12.5 µg/mL (≈ 10.7 to 38.2 µM); in assay [2], 12.5 to 150 µg/mL (≈ 38.2 to 458 µM); in the assay with E. coli 25922, 12.5 to 150 µg/mL (≈ 38.2 to 458 µM).

Regarding `CCc1cc(C(=O)O)c(=O)[nH]c1-c1ccc2nccnc2c1` [Cpd 57, 5-ethyl-2-oxo-6-(quinoxalin-6-yl)-1,2-dihydropyridine-3-carboxylic acid], the MIC (in the assay on E. coli LZ3111; in assay [1]; in assay [2]; in the assay on E. coli 25922) was 12.5 to 150 µg/mL (≈ 42.3 to 508 µM) throughout.

Consider `CCc1cc(C(=O)O)c(=O)[nH]c1-c1cnc2c(c1)OCCN2C` [Cpd 58, 5-ethyl-6-(4-methyl-3,4-dihydro-2H-pyrido[3,2-b][1,4]oxazin-7-yl)-2-oxo-1,2-dihydropyridine-3-carboxylic acid], for which the MIC in the assay with E. coli LZ3111 fell in the range of 12.5 to 150 µg/mL (≈ 39.6 to 476 µM); in assay [1] it was 3.5 to 12.5 µg/mL (≈ 11.1 to 39.6 µM); in assay [2], 12.5 to 150 µg/mL (≈ 39.6 to 476 µM); in the assay on E. coli 25922, 12.5 to 150 µg/mL (≈ 39.6 to 476 µM).

Regarding `CCc1cc(C(=O)O)c(=O)[nH]c1-c1cnc2c(c1)c(C#N)cn2C` [Cpd 59, 6-(3-cyano-1-methyl-1H-pyrrolo[2,3-b]pyridin-5-yl)-5-ethyl-2-oxo-1,2-dihydropyridine-3-carboxylic acid], the MIC (in the assay on E. coli LZ3111; in assay [1]; in assay [2]; in the assay with E. coli 25922) was 12.5 to 150 µg/mL (≈ 38.8 to 465 µM) throughout.

As to `CCc1cc(C(=O)O)c(=O)[nH]c1-c1ccc2nc(CN(C)C)cn2c1.Cl.Cl` [Cpd 60, 6-(2-((dimethylamino)methyl)imidazo[1,2-a]pyridin-6-yl)-5-ethyl-2-oxo-1,2-dihydropyridine-3-carboxylic acid dihydrochloride], the MIC (with E. coli LZ3111; in assay [1]; in assay [2]; in the assay with E. coli 25922) was 12.5 to 150 µg/mL in each case.

As for `CCc1cc(C(=O)O)c(=O)[nH]c1-c1ccc2nc(CN3CCCC3)cn2c1.Cl.Cl` [Cpd 61, 5-ethyl-2-oxo-6-(2-(pyrrolidin-1-ylmethyl)imidazo[1,2-a]pyridin-6-yl)-1,2-dihydropyridine-3-carboxylic acid dihydrochloride], the minimal inhibitory concentration (MIC) (with E. coli LZ3111; in assay [1]; in assay [2]; in the assay on E. coli 25922) was 12.5 to 150 µg/mL throughout.

Regarding `CCc1cc(C(=O)O)c(=O)[nH]c1-c1ccc2nc(CN3CCCCC3)cn2c1.Cl.Cl` [Cpd 62, 5-ethyl-2-oxo-6-(2-(piperidin-1-ylmethyl)imidazo[1,2-a]pyridin-6-yl)-1,2-dihydropyridine-3-carboxylic acid dihydrochloride], the MIC (in the assay on E. coli LZ3111; in assay [1]; in assay [2]; in the assay on E. coli 25922) was 12.5 to 150 µg/mL throughout.

As to `CCc1cc(C(=O)O)c(=O)[nH]c1-c1ccc2nc(CN(CC)CC)cn2c1.Cl.Cl` [Cpd 63, 6-(2-((diethylamino)methyl)imidazo[1,2-a]pyridin-6-yl)-5-ethyl-2-oxo-1,2-dihydropyridine-3-carboxylic acid dihydrochloride], the MIC (with E. coli LZ3111; in assay [1]; in assay [2]; in the assay with E. coli 25922) was 12.5 to 150 µg/mL in each case.

On to `CCc1cc(C(=O)O)c(=O)[nH]c1-c1cc2cc(CN3CCCC3)n(C)c2s1.Cl` [Cpd 64, 5-ethyl-6-(6-methyl-5-(pyrrolidin-1-ylmethyl)-6H-thieno[2,3-b]pyrrol-2-yl)-2-oxo-1,2-dihydropyridine-3-carboxylic acid hydrochloride], for which the MIC in the assay with E. coli LZ3111 was 12.5 to 150 µg/mL; in assay [1], below 1 µg/mL; in assay [2], 12.5 to 150 µg/mL; in the assay on E. coli 25922 it was 12.5 to 150 µg/mL.

As for `CCc1cc(C(=O)O)c(=O)[nH]c1-c1cc2cc(CN(C)C)n(C)c2s1.Cl` [Cpd 65, 6-(5-((dimethylamino)methyl)-6-methyl-6H-thieno[2,3-b]pyrrol-2-yl)-5-ethyl-2-oxo-1,2-dihydropyridine-3-carboxylic acid hydrochloride], the MIC in the assay with E. coli LZ3111 was 12.5 to 150 µg/mL; in assay [1], below 1 µg/mL; in assay [2], 12.5 to 150 µg/mL; in the assay on E. coli 25922 it was 3.5 to 12.5 µg/mL.

Take `CCc1cc(C(=O)O)c(=O)[nH]c1-c1ccc2c(c1)cc1n2CCNC1` [Cpd 66, 5-ethyl-2-oxo-6-(1,2,3,4-tetrahydropyrazino[1,2-a]indol-8-yl)-1,2-dihydropyridine-3-carboxylic acid]: the MIC with E. coli LZ3111 was 12.5 to 150 µg/mL (≈ 37.1 to 445 µM); in assay [1], below 1 µg/mL; in assay [2] it was 12.5 to 150 µg/mL (≈ 37.1 to 445 µM); with E. coli 25922 it was below 1 µg/mL.

As for `CCc1cc(C(=O)O)c(=O)[nH]c1-c1ccc2c(c1)cc([C@H]1CCCN1)n2C.Cl` [Cpd 67, (R)-5-ethyl-6-(1-methyl-2-(pyrrolidin-2-yl)-1H-indol-5-yl)-2-oxo-1,2-dihydropyridine-3-carboxylic acid hydrochloride], the MIC in the assay with E. coli LZ3111 is 12.5 to 150 µg/mL; in assay [1], below 1 µg/mL; in assay [2], 12.5 to 150 µg/mL; in the assay on E. coli 25922, 1 to 3.5 µg/mL.

Take `CCc1cc(C(=O)O)c(=O)[nH]c1-c1ccc2c(c1)cc([C@H]1CCCN1C)n2C` [Cpd 68, (R)-5-ethyl-6-(1-methyl-2-(1-methylpyrrolidin-2-yl)-1H-indol-5-yl)-2-oxo-1,2-dihydropyridine-3-carboxylic acid]: the MIC with E. coli LZ3111 is 12.5 to 150 µg/mL (≈ 32.9 to 395 µM); in assay [1], below 1 µg/mL; in assay [2] it was 12.5 to 150 µg/mL (≈ 32.9 to 395 µM); in the assay with E. coli 25922 it was 1 to 3.5 µg/mL (≈ 2.64 to 9.22 µM).

In the case of `CCc1cc(C(=O)O)c(=O)[nH]c1-c1ccc2c(c1)cc([C@@H]1CCCN1)n2C.Cl` [Cpd 69, (S)-5-ethyl-6-(1-methyl-2-(pyrrolidin-2-yl)-1H-indol-5-yl)-2-oxo-1,2-dihydropyridine-3-carboxylic acid hydrochloride], the MIC is 12.5 to 150 µg/mL in the assay on E. coli LZ3111, below 1 µg/mL in assay [1], 12.5 to 150 µg/mL in assay [2] and 1 to 3.5 µg/mL in the assay on E. coli 25922.

Consider `CCc1cc(C(=O)O)c(=O)[nH]c1-c1ccc2c(c1)cc(C1CNCCN1)n2C.Cl.Cl` (centres unmarked) [Cpd 70, 5-ethyl-6-(1-methyl-2-(piperazin-2-yl)-1H-indol-5-yl)-2-oxo-1,2-dihydropyridine-3-carboxylic acid dihydrochloride], for which the MIC was in the range of 12.5 to 150 µg/mL with E. coli LZ3111, 3.5 to 12.5 µg/mL in assay [1], 12.5 to 150 µg/mL in assay [2] and 12.5 to 150 µg/mL in the assay with E. coli 25922.

On to `CCc1cc(C(=O)O)c(=O)[nH]c1-c1ccc2c(c1)cc(C1CNCCN1C)n2C.Cl.Cl` (centres unmarked) [Cpd 71, 5-ethyl-6-(1-methyl-2-(1-methylpiperazin-2-yl)-1H-indol-5-yl)-2-oxo-1,2-dihydropyridine-3-carboxylic acid dihydrochloride], for which the MIC in the assay with E. coli LZ3111 lay within 12.5 to 150 µg/mL; in assay [1], 3.5 to 12.5 µg/mL; in assay [2], 12.5 to 150 µg/mL; in the assay on E. coli 25922, 12.5 to 150 µg/mL.

Consider `CCc1cc(C(=O)O)c(=O)[nH]c1-c1ccc2c(c1)c(C#N)cn2C` [Cpd 72, 6-(3-cyano-1-methyl-1H-indol-5-yl)-5-ethyl-2-oxo-1,2-dihydropyridine-3-carboxylic acid], for which the minimal inhibitory concentration (MIC) lay within 12.5 to 150 µg/mL (≈ 38.9 to 467 µM) in the assay on E. coli LZ3111, 3.5 to 12.5 µg/mL (≈ 10.9 to 38.9 µM) in assay [1], 12.5 to 150 µg/mL (≈ 38.9 to 467 µM) in assay [2] and 12.5 to 150 µg/mL (≈ 38.9 to 467 µM) with E. coli 25922.

The values are drawn from patent US9409905B2, “Antibacterial compounds and methods for use” (PTC THERAPEUTICS, INC., priority 2011, dated 2016).
